Reference: patent publication US11447472B2, “Polymorophs of 5-aza-4′-thio-2′-deoxycytidine” (Southern Research Institute, priority 2020, dated 2022)
≈ marks a conversion by molar mass, not a printed value.

Assays:
Assay type in all cases: physicochemical
[1] = Stability tests at 5° C.: mother liquors and solid phases of suspensions, HPLC; details: for chemical stability (purity over time) / purity decreased over time to: 5° C.; for chemical stability (purity over time): 70 hours; for purity decreased over time to: about 70 hours, area %
Procedure: Additional stability tests were performed at 5° C. Suspensions of the starting material were prepared in water, acetonitrile, ethanol (EtOH), and isopropanol. The mother liquors of the suspensions and the water solution were analyzed by HPLC at regular intervals over 3 days.
The solid phases from the suspensions were also evaluated for purity after 72 h. […] Therefore, the aza-T-dCyd appeared chemically stable in the solid phase after 70-hour incubation at 5° C.

[2] = Thermodynamic solubility, shake-flask method; details: for solubility at 24 h: organic solvent or mixture, thermodynamic from solid, RT
Procedure: The thermodynamic solubility of aza-T-dCyd was determined according to the shake-flask method. Suspensions of the crystalline aza-T-dCyd were prepared in 25 neat solvents. Small aliquots of solvent were added to the aza-T-dCyd until thin suspensions were obtained. Subsequently, the samples were equilibrated at RT under continuous stirring for 24 hours. After equilibration, a small aliquot of mother liquor was filtered and analyzed by HPLC. The concentration of the solute was determined against a calibration curve of the aza-T-dCyd. The solubility values of aza-T-dCyd at room temperature are listed in Table 3 according to the US Pharmacopeia's classification (USP29). The aza-T-dCyd was soluble in high boiling point solvents such as DMF and DMA. Generally, aza-T-dCyd was slightly or very slightly soluble in polar solvents and practically insoluble in non-polar solvents.

[3] = Chemical stability of aza-T-dCyd in solutions (RT, 50° C., 80° C.), HPLC; details: for purity in solution (chemical stability): RT for 24 h, and 50° C. or 80° C. for 1 hour, HPLC
Procedure: The chemical stability of aza-T-dCyd was determined. Aza-T-dCyd was prepared in 1,4-dioxane, acetonitrile (ACN), isopropanol (IPA), and methyl ethyl ketone. Each solution was divided over 3 vials and incubated at RT for 24 hours, at 50° C. for 1 hour, or at 80° C. for 1 hour. The solutions were analyzed by HPLC at the start and after the incubation time.

For `Nc1ncn([C@H]2C[C@H](O)[C@@H](CO)S2)c(=O)n1` [aza-T-dCyd, 5-Aza-4′-thio-2′-deoxycytidine], the “chemical stability (purity over time)” value ([1]; IPA, mother liquor) was “remained stable”, the “purity decreased over time to” value ([1]; acetonitrile, mother liquor) was 84% and the “chemical stability (purity over time)” value ([1]; ethanol, mother liquor) was “remained stable”. The “Purity of Aza-T-dCYd after 72 h at 5° C.” value ([1]; solid phase from ACN suspension) was 98.8 area %, the “Purity of Aza-T-dCYd after 72 h at 5° C.” value ([1]; solid phase from EtOH suspension) was 99.8 area % and the “Purity of Aza-T-dCYd after 72 h at 5° C.” value ([1]; solid phase from IPA suspension) was 99.4 area %. The “purity of solids recovered from the suspensions” value ([1]; solid phases from the four solvents after 72 h at 5° C.) was “about 99 % (area %)”, the “purity decreased over time to” value ([1]; water solution) was 78% and the USP29 class. ([2]; 2,2,2,-trifluoroethanol, Methanol (rows r7-r8), class wraps over two lines: Slightly Soluble) was “Slightly”. The USP29 class. ([2]; Anisole to Toluene (rows r20-r33), class wraps over two lines: Practically insoluble) was “Practically”, the USP29 class. ([2]; Dimethylformamide, N,N-dimethylacetamide (rows r5-r6)) was “Soluble” and the USP29 class. ([2]; Ethanol to 1,2-dimethoxyethane (rows r9-r19), class wraps over three lines: Very Slightly Soluble) was “Very”. For the same compound, the solubility at 24 h ([2]; 1,2-dimethoxyethane) was 100 µg/mL (≈ 409 µM), the solubility at 24 h ([2]; 1,4-dioxane) was 300 µg/mL (≈ 1230 µM) and the solubility at 24 h ([2]; 1-propanol) was 400 µg/mL (≈ 1640 µM). For the same compound, the solubility at 24 h ([2]; 2,2,2,-trifluoroethanol) was 4100 µg/mL (≈ 16800 µM), the solubility at 24 h ([2]; 2-butanol) was 300 µg/mL (≈ 1230 µM) and the solubility at 24 h ([2]; 2-methyltetrahydrofuran) was 100 µg/mL (≈ 409 µM). It also gave a solubility at 24 h ([2]; 2-propanol) of 400 µg/mL (≈ 1640 µM), a solubility at 24 h ([2]; 4-methyl-2-pentanone) of 100 µg/mL (≈ 409 µM) and a solubility at 24 h ([2]; Acetone) of 200 µg/mL (≈ 819 µM). The solubility at 24 h ([2]; Acetonitrile) was 100 µg/mL (≈ 409 µM), the solubility at 24 h ([2]; Anisole) was less than 100 µg/mL and the solubility at 24 h ([2]; Chloroform) was less than 100 µg/mL. For the same compound, the solubility at 24 h ([2]; Cumene) was less than 100 µg/mL, the solubility at 24 h ([2]; Cyclohexane) was less than 100 µg/mL and the solubility at 24 h ([2]; Dichloromethane) was less than 100 µg/mL. The solubility at 24 h ([2]; Diethyl ether) was less than 100 µg/mL, the solubility at 24 h ([2]; Dimethylformamide) was 65800 µg/mL (≈ 269000 µM) and the solubility at 24 h ([2]; Ethanol) was 800 µg/mL (≈ 3270 µM). For the same compound, the solubility at 24 h ([2]; Ethyl acetate) was less than 100 µg/mL, the solubility at 24 h ([2]; Ethyl formate) was less than 100 µg/mL and the solubility at 24 h ([2]; Heptane) was less than 100 µg/mL. It also gave a solubility at 24 h ([2]; Isopropyl acetate) of less than 100 µg/mL, a solubility at 24 h ([2]; Methanol) of 3600 µg/mL (≈ 14700 µM) and a solubility at 24 h ([2]; Methyl ethyl ketone) of less than 100 µg/mL. The solubility at 24 h ([2]; N,N-dimethylacetamide) was 60000 µg/mL (≈ 246000 µM), the solubility at 24 h ([2]; Tetrahydrofuran) was 100 µg/mL (≈ 409 µM) and the solubility at 24 h ([2]; Toluene) was less than 100 µg/mL. For the same compound, the solubility at 24 h ([2]; p-Xylene) was less than 100 µg/mL, the solubility at 24 h ([2]; tert-butyl methyl ether) was less than 100 µg/mL and the “purity in solution (chemical stability)” value ([3]; 1,4-dioxane) was greater than 95%. For the same compound, the “chemical stability in solution” value ([3]; IPA, heated at 80° C. (1 hour) or stored at RT for 24 h) was “degraded significantly”, the “purity in solution (chemical stability)” value ([3]; acetonitrile) was greater than 95% and the “chemical stability in solution” value ([3]; methyl ethyl ketone, 1 hour at 50° C. and 80° C., 24 hour at RT) was “significant decomposition”.
